Article PMC8752738, “A propolis-derived small molecule ameliorates metabolic syndrome in obese mice by targeting the CREB/CRTC2 transcriptional complex” (Nature Communications, 2022)
Values joined by “and” are separate entries in the source; they are usually repeats but may differ in a detail not shown here. Identical values can stand only once.

Assay: Metabolic chamber assay
Type: in vivo, mouse
Parameters: AUC of RER / AUC of RER, group mean: unit not given beside the values
Details: for RER of DIO: DIO ip APC, single animals
Protocol: Metabolic parameters of mice were determined using Columbus Instruments Comprehensive Lab Animal Monitoring System (CLAMS). The area unit under the curve (AUC) of respiratory exchange ratio (RER) and ambulatory activity (X-TOT) were calculated using Graphpad prism 8.0.

For `CC(C)=CCc1cc(C=CC(=O)O)cc(CC=C(C)C)c1O` [APC, 3,5-diprenyl-4-hydroxycinnamic acid], the “RER of DIO” value (interval 36, hour 13.2) was 0.891 and 0.836 and 0.797 and 0.825, the “RER of DIO” value (interval 37, hour 13.6) was 0.88 and 0.869 and 0.798 and 0.846 and the “RER of DIO” value (interval 38, hour 13.9) was 0.846 and 0.848 and 0.837 and 0.814. The “RER of DIO” value (interval 39, hour 14.3) was 0.854 and 0.82 and 0.839 and 0.825, the “RER of DIO” value (interval 40, hour 14.7) was 0.86 and 0.846 and 0.828 and 0.83 and the “RER of DIO” value (interval 41, hour 15.0) was 0.866 and 0.871 and 0.84 and 0.828. For the same compound, the “RER of DIO” value (interval 42, hour 15.4) was 0.814 and 0.86 and 0.83 and 0.806, the “RER of DIO” value (interval 43, hour 15.8) was 0.858 and 0.883 and 0.843 and 0.83 and the “RER of DIO” value (interval 44, hour 16.1) was 0.887 and 0.859 and 0.818 and 0.83. The “RER of DIO” value (interval 45, hour 16.5) was 0.883 and 0.858 and 0.81 and 0.824, the “RER of DIO” value (interval 46, hour 16.9) was 0.827 and 0.816 and 0.835 and 0.797 and the “RER of DIO” value (interval 47, hour 17.2) was 0.845 and 0.787 and 0.84 and 0.811. For the same compound, the “RER of DIO” value (interval 48, hour 17.6) was 0.803 and 0.8 and 0.812 and 0.779, the “RER of DIO” value (interval 49, hour 18.0) was 0.826 and 0.77 and 0.786 and 0.808 and the “RER of DIO” value (interval 50, hour 18.3) was 0.8 and 0.765 and 0.776 and 0.827. The “RER of DIO” value (interval 51, hour 18.7) was 0.816 and 0.804 and 0.782 and 0.849, the “RER of DIO” value (interval 52, hour 19.1) was 0.748 and 0.846 and 0.834 and 0.782 and the “RER of DIO” value (interval 53, hour 19.4) was 0.829 and 0.795 and 0.809 and 0.784. The “RER of DIO” value (interval 54, hour 19.8) was 0.795 and 0.796 and 0.8 and 0.821, the “RER of DIO” value (interval 55, hour 20.2) was 0.793 and 0.823 and 0.818 and 0.827 and the “RER of DIO” value (interval 56, hour 20.5) was 0.819 and 0.827 and 0.837 and 0.791. The “RER of DIO” value (interval 57, hour 20.9) was 0.849 and 0.806 and 0.795 and 0.788, the “RER of DIO” value (interval 58, hour 21.3) was 0.795 and 0.771 and 0.783 and 0.79 and the “RER of DIO” value (interval 59, hour 21.6) was 0.833 and 0.785 and 0.748 and 0.783. The “RER of DIO” value (interval 60, hour 22.0) was 0.787 and 0.839 and 0.786 and 0.789, the “RER of DIO” value (interval 61, hour 22.4) was 0.78 and 0.845 and 0.792 and 0.77 and the “RER of DIO” value (interval 62, hour 22.7) was 0.799 and 0.852 and 0.77 and 0.81. For the same compound, the “RER of DIO” value (interval 63, hour 23.1) was 0.815 and 0.784 and 0.793 and 0.796, the “RER of DIO” value (interval 64, hour 23.5) was 0.868 and 0.804 and 0.79 and 0.793 and the “RER of DIO” value (interval 65, hour 23.8) was 0.88 and 0.841 and 0.837 and 0.825. For the same compound, the “RER of DIO” value (interval 66, hour 24.2) was 0.846 and 0.879 and 0.838 and 0.813, the “RER of DIO” value (interval 67, hour 24.6) was 0.838 and 0.875 and 0.807 and 0.8 and the “RER of DIO” value (interval 68, hour 24.9) was 0.86 and 0.913 and 0.847 and 0.857. For the same compound, the “RER of DIO” value (interval 69, hour 25.3) was 0.873 and 0.865 and 0.838 and 0.896, the “RER of DIO” value (interval 70, hour 25.7) was 0.843 and 0.89 and 0.8 and 0.847 and the “AUC of RER” value (WT mice, individual mice) was 64.64 and 64.37 and 63.27 and 66.85. The “Twenty-four hours respiratory exchange ratio (RER)” value (WT mice, individual mice, reading 6) was 0.933 and 0.928 and 0.895 and 0.97, the “Twenty-four hours respiratory exchange ratio (RER)” value (WT mice, individual mice, reading 7) was 0.939 and 0.96 and 0.973 and 0.974 and the “Twenty-four hours respiratory exchange ratio (RER)” value (WT mice, individual mice, reading 8) was 0.918 and 0.961 and 0.922 and 0.982. The “Twenty-four hours respiratory exchange ratio (RER)” value (WT mice, individual mice, reading 9) was 0.913 and 0.964 and 0.926 and 0.986, the “Twenty-four hours respiratory exchange ratio (RER)” value (WT mice, individual mice, reading 10) was 0.969 and 0.971 and 0.952 and 0.978 and the “Twenty-four hours respiratory exchange ratio (RER)” value (WT mice, individual mice, reading 11) was 0.955 and 0.975 (2×) and 0.936. The “Twenty-four hours respiratory exchange ratio (RER)” value (WT mice, individual mice, reading 12) was 0.989 and 0.966 and 0.963 and 1.016, the “Twenty-four hours respiratory exchange ratio (RER)” value (WT mice, individual mice, reading 13) was 0.967 and 0.988 and 0.98 and 0.99 and the “Twenty-four hours respiratory exchange ratio (RER)” value (WT mice, individual mice, reading 14) was 0.975 and 0.999 and 0.954 and 1.005. For the same compound, the “Twenty-four hours respiratory exchange ratio (RER)” value (WT mice, individual mice, reading 15) was 0.988 and 0.994 and 0.959 and 0.969, the “Twenty-four hours respiratory exchange ratio (RER)” value (WT mice, individual mice, reading 16) was 1.003 and 0.991 and 0.965 and 0.97 and the “Twenty-four hours respiratory exchange ratio (RER)” value (WT mice, individual mice, reading 17) was 1.006 and 0.99 and 0.951 and 0.989. The “Twenty-four hours respiratory exchange ratio (RER)” value (WT mice, individual mice, reading 18) was 0.963 and 0.961 and 0.974 and 1.025, the “Twenty-four hours respiratory exchange ratio (RER)” value (WT mice, individual mice, reading 19) was 0.958 and 0.976 and 0.946 and 1.032 and the “Twenty-four hours respiratory exchange ratio (RER)” value (WT mice, individual mice, reading 20) was 0.939 and 0.961 and 1.004 and 1.024. For the same compound, the “Twenty-four hours respiratory exchange ratio (RER)” value (WT mice, individual mice, reading 21) was 0.991 and 1.018 and 0.961 and 0.993, the “Twenty-four hours respiratory exchange ratio (RER)” value (WT mice, individual mice, reading 22) was 0.946 and 0.962 and 0.958 and 0.989 and the “Twenty-four hours respiratory exchange ratio (RER)” value (WT mice, individual mice, reading 23) was 0.971 and 1.012 and 0.999 and 0.985. For the same compound, the “Twenty-four hours respiratory exchange ratio (RER)” value (WT mice, individual mice, reading 24) was 1.006 and 0.997 and 0.993 and 1.002, the “Twenty-four hours respiratory exchange ratio (RER)” value (WT mice, individual mice, reading 25) was 0.971 and 0.965 and 0.961 and 0.984 and the “Twenty-four hours respiratory exchange ratio (RER)” value (WT mice, individual mice, reading 26) was 0.941 and 0.984 and 1.005 and 0.996. The “Twenty-four hours respiratory exchange ratio (RER)” value (WT mice, individual mice, reading 27) was 0.981 and 0.968 and 0.989 and 0.998, the “Twenty-four hours respiratory exchange ratio (RER)” value (WT mice, individual mice, reading 28) was 0.956 and 0.954 and 0.968 and 0.984 and the “Twenty-four hours respiratory exchange ratio (RER)” value (WT mice, individual mice, reading 29) was 0.975 and 0.977 and 0.994 and 1.026. The “Twenty-four hours respiratory exchange ratio (RER)” value (WT mice, individual mice, reading 30) was 0.994 and 0.963 and 1.014 and 1.033, the “AUC of RER, group mean” value (WT mice, n=4) was 64.78 and the “respiratory exchange ratio (RER) and energy expenditure” value (db/db mice) was “significantly elevated”.
